Patent US6042841A, “Cosmetic method of treating skin” (Unilever Home & Personal Care USA Division of Conopco, Inc., priority 1998, dated 2000)

Legend:
Assay type in all cases: cell-based
[1] = test system: ICAM; test: ICAM-1 assay, PMA-induced ICAM production in human skin fibroblasts; settings: for ICAM: N 4, p < 0.001 vs PMA-treated
Experimental: (§1) Intracellular adhesion molecules (ICAM) and PEG2 production by human skin fibroblasts can be induced by the inflammatory stimulus PMA (phorbal myristate acetate). PMA represents an external stressor which induces oxidative stress and inflammatory responses in cells. This model is used to model inflammation in vivo.
(§2) Primary human foreskin fibroblasts at passage 2 (P2) were seeded into 96-well plates at 10000 cells/well and maintained for 24 hours in an atmosphere of 5% carbon dioxide in Dulbeccos Modified Eagles Medium (DMEM) supplemented with 10% foetal calf serum. […] Phorbal myristate acetate (PMA) (Sigma) was added to the media and the cells incubated for a further 24 hours. […] The fibroblasts/media were then analysed as described below immediately or snap frozen in liquid nitrogen and stored at -70° C. for future analysis. The cells were then counted and data from the dot-blot analysis subsequently standardised to cell number.
ICAM-1 assay: Media were discarded and cells washed with Dulbecco PBS. To the washed cells, 150 μl 0.1% Triton X-100 (Sigma) was added for 3 minutes to extract ICAM from cell membrane. The extracts were transferred to Eppendoff centrifuge tubes and centrifuged at 1000 g for 2 min to remove cell debris. A volume of 100 μl supernatant was used for ICAM assay. The soluble ICAM-1 was assessed with commercially available immunoenzymometric assay kit (R&D Systems). Concentrations of ICAM-1 in the samples were determined based on parallelly running standard curve.

[2] = test system: decorin; test: Dot blot assay for decorin synthesis in human dermal fibroblasts
Experimental: Primary human foreskin fibroblasts at passage 2 (P2) were seeded into 12-well plates at 10000 cells/cm^2 and maintained for 24 hours in an atmosphere of 5% carbon dioxide and 4% oxygen in Dulbeccos Modified Eagles Medium (DMEM) supplemented with 10% foetal calf serum. After this time the cells were washed with serum free DMEM and then incubated in fresh serum free DMEM for a further 60 hours. The fibroblast monolayers were then washed again with serum free DMEM. Test reagents and vehicle controls were added to the cells in triplicate in a final volume of 0.4 ml/well fresh serum free DMEM and incubated for a further 24 hours. This fibroblast conditioned medium was either analysed immediately or snap frozen in liquid nitrogen and stored at -70° C. for future analysis. The cells were then counted and data from the dot-blot analysis subsequently standardised to cell number.
Samples of conditioned medium from dermal fibroblasts treated with vehicle (as a control) or test reagents were supplemented with 20 mM dithiothreitol (1:10 dilution of 200 mM stock solution) and 0.1% sodium dodecylsulphate (1:100 dilution of 10% stock solution), mixed well and then incubated at 75° C. for 2 minutes. A standard for the assay was generated by serial dilution of neat fibroblast conditioned medium from fibroblasts seeded at 10000 cells/cm^2 in a 175 cm^2 flask and maintained in serum free DMEM as described above. Assay samples were subsequently applied in triplicate to a prewetted sheet of Immobilon-P transfer membrane using the 96-well Bio-Dot Apparatus from Bio-Rad as described in the manufacturers guidelines. Approximately 200 μl of medium was applied per well. […] Dot intensity was assessed by computer-assisted image analysis using the quantification tools in ImageQuant™, standardised to cell number and the effects of various test reagents on decorin and procollagen-I synthesis were determined relative to a vehicle treated control value of 100 arbitrary units.

[3] = test system: PGE2; test: Keratinocyte PGE2 assay (basal release); settings: 0.1 and 1 μM; 1 way ANOVA, p<0.05
Experimental: This was then replaced with KGM without hydrocortisone for 24-48 hours. No petroselinic acid was added to the control cells. […] At the end of the incubation the medium was harvested and assayed for the basal release of the pro-inflammatory PGE2 by enzyme-linked immuno assay using a commercial PGE2 kit (Amersham, Buckinghamshire, England).
The anti-inflammatory potential of the test compounds were assessed by the ability of the compounds to reduce the basal levels of secreted PGE2 as compared to the control. […]

[4] = test system: PGE2; test: Prostaglandin E2 assay, PMA-induced PGE2 production in human skin fibroblasts; settings: for PGE2: N 4, p < 0.001 vs PMA-treated
Experimental: as §1, §2
Prostaglandin E2 (PGE2) assay: Volumes of 50 μl culture medium were taken for PGE2 assay after gently shaking the culture plate. PGE2 levels in the medium were determined with a Biotrak PGE2 immunoassay kit (Amersham, UK). The assay is based on the competition between unlabelled PGE2 in the sample and a fixed quantity of horseradish peroxidase labelled PGE2 for a limited amount of fixed PGE2 specific antibody. Concentrations of unlabelled sample PGE2 are determined according to a standard curve which was obtained at the same time.

**Q.** Which ICAM ([1]; PMA + PA (0.1 uM)) does the source give for `CCCCCCCCCCC/C=C\CCCCC(=O)O` [Petroselinic Acid, petroselinic acid] here?
**A.** The ICAM was 8.64 ± 0.89 ng/mL.

**Q.** And the ICAM ([1]; PMA + PA (1 uM))?
**A.** The ICAM was 7.71 ± 0.66 ng/mL.

**Q.** And the ICAM ([1]; PMA + PA (10 uM))?
**A.** The ICAM was 7.39 ± 0.14 ng/mL.

**Q.** And the ICAM ([1]; PMA + PA (100 uM))?
**A.** Its ICAM is 6.68 ± 1.35 ng/mL.

**Q.** And the “production of ICAM (in words)” value ([1]; PMA-challenged)?
**A.** Its value is “decreases the production”.

**Q.** What about the “decorin synthesis (in words)” value ([2]; compared to the control) of the same molecule?
**A.** The value was “significantly upregulates”.

**Q.** And the “magnitude of upregulation of decorin synthesis vs retinoic acid (in words)” value ([2]; petroselinic acid 10 μM vs retinoic acid 1 μm (so in the source))?
**A.** The value was “exceeds that of the bench-mark anti-aging dermal repair active, retinoic acid”.

**Q.** What about the “release of PGE2 from unstimulated keratinocytes (in words)” value [3] of the same molecule?
**A.** The value was “significantly (p<0.05) reduced”.

**Q.** And the PGE2 ([4]; PMA + PA (0.1 uM))?
**A.** The PGE2 was 500 ± 127 pg/mL.

**Q.** What about the PGE2 ([4]; PMA + PA (1 uM)) of the same molecule?
**A.** The PGE2 was 486 ± 93 pg/mL.

**Q.** And the PGE2 ([4]; PMA + PA (10 uM))?
**A.** The PGE2 was 233 ± 139 pg/mL.

**Q.** What about the PGE2 ([4]; PMA + PA (100 uM)) of the same molecule?
**A.** The PGE2 was 117 ± 39 pg/mL.

**Q.** And the “inflammatory response as measured by PGE2 production (in words)” value ([4]; PMA-challenged, even at 0.1 μm (so in the source))?
**A.** Its value is “dramatically reduces the inflammatory response”.
